Assays:
Type in all cases: in vivo
[1] = system: ivyleaf morningglory (Ipomoea hederacea); test: Test C; design: key: 0 was no effect; 100 was complete control; details: PREEMERGENCE
[2] = system: hairy beggarticks (Bidens pilosa); test: Test C; design: key: 0 was no effect; 100 was complete control; details: PREEMERGENCE
[3] = system: wild poinsettia (Euphorbia heterophylla); test: Test C; design: key: 0 was no effect; 100 was complete control; details: PREEMERGENCE
[4] = system: purple nutsedge (Cyperus rotundus); test: Test C; design: key: 0 was no effect; 100 was complete control; details: PREEMERGENCE
[5] = system: surinam grass (Brachiaria decumbens); test: Test C; details: PREEMERGENCE
[6] = system: purple nutsedge (Cyperus rotundus); test: Test E pre-/postemergence/post directed; design: key: 0 is no injury; 100 is complete control
Outline: (§1)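 Injury was scored visually on a 0 to 100 scale (100 = complete control) 13 to 21 days after treatment of greenhouse-grown plants. Test chemicals, in a surfactant-containing non-phytotoxic solvent, were sprayed onto soil within a day of planting, onto plants at the two to four leaf stage, or directed at the base of the plants.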

[7] = system: sandbur (Cenchrus echinatus); test: Test E pre-/postemergence/post directed; design: key: 0 is no injury; 100 is complete control; details: PREEMERGENCE, Rate 32 g/ha
Outline: as §1

[8] = system: field bindweed (Convolvulus arvensis); test: Test C; design: key: 0 was no effect; 100 was complete control; details: PREEMERGENCE
corn (Zea mays) = test: Test C; design: key: 0 was no effect; 100 was complete control; details: PREEMERGENCE
[9] = system: surinam grass (Brachiaria decumbens); test: Test E pre-/postemergence/post directed
Outline: as §1

[10] = system: alexandergrass (Brachiaria plantaginea); test: Test E pre-/postemergence/post directed
Outline: as §1

[11] = system: common groundsel (Senecio vulgaris); test: Test E pre-/postemergence/post directed; details: PREEMERGENCE
Outline: as §1

[12] = system: johnson grass (Sorghum halepense); test: Test E pre-/postemergence/post directed
Outline: as §1

[13] = system: pitted morningglory (Ipomoea lacunosa); test: Test E pre-/postemergence/post directed
Outline: as §1

Structure (SMILES): Cc1cnc(-n2ccc(C(F)(F)F)n2)nc1Cn1ccc(C(F)(F)F)n1 [Compound 52]
- Plant response rating, I. morningglory ([1]; Rate 35 g/ha): 5
- Plant response rating, I. morningglory ([1]; Rate 70 g/ha): 100
- Plant response rating, I. morningglory ([1]; Rate 140 g/ha): 100
- Plant response rating, H. beggarticks ([2]; Rate 35 g/ha): 0
- Plant response rating, H. beggarticks ([2]; Rate 70 g/ha): 0
- Plant response rating, H. beggarticks ([2]; Rate 140 g/ha): 30
- Plant response rating, Wild poinsettia ([3]; Rate 70 g/ha): 40
- Plant response rating, Wild poinsettia ([3]; Rate 140 g/ha): 100
- Plant response rating, Purple nutsedge ([4]; Rate 35 g/ha): 0
- Plant response rating, Purple nutsedge ([4]; Rate 70 g/ha): 5
- Plant response rating, Purple nutsedge ([4]; Rate 140 g/ha): 10
- Plant response rating, Surinam grass ([5]; Rate 35 g/ha): 5
- Plant response rating, Surinam grass ([5]; Rate 70 g/ha): 40
- Plant response rating, Surinam grass ([5]; Rate 140 g/ha): 70
- Plant response rating, Purple nutsedge ([6]; POSTEMERGENCE, Rate 125 g/ha): 40
- Plant response rating, Purple nutsedge ([6]; POSTEMERGENCE, Rate 250 g/ha): 50
- Plant response rating, Purple nutsedge ([6]; PREEMERGENCE, Rate 32 g/ha): 5
- Plant response rating, Purple nutsedge ([6]; PREEMERGENCE, Rate 64 g/ha): 30
- Plant response rating, Purple nutsedge ([6]; PREEMERGENCE, Rate 125 g/ha): 50
- Plant response rating, Sandbur [7]: 0
- Plant response rating, Field bindweed ([8]; Rate 35 g/ha): 100
- Plant response rating, Field bindweed ([8]; Rate 70 g/ha): 100
- Plant response rating, Field bindweed ([8]; Rate 140 g/ha): 100
- Plant response rating, Corn (corn (Zea mays); Rate 35 g/ha): 0
- Plant response rating, Corn (corn (Zea mays); Rate 70 g/ha): 45
- Plant response rating, Corn (corn (Zea mays); Rate 140 g/ha): 50
- Plant response rating, Surinam grass ([9]; POSTEMERGENCE, Rate 125 g/ha): 75
- Plant response rating, Surinam grass ([9]; POSTEMERGENCE, Rate 250 g/ha): 75
- Plant response rating, Surinam grass ([9]; PREEMERGENCE, Rate 32 g/ha): 30
- Plant response rating, Surinam grass ([9]; PREEMERGENCE, Rate 64 g/ha): 70
- Plant response rating, Surinam grass ([9]; PREEMERGENCE, Rate 125 g/ha): 80
- Plant response rating, Alexandergrass ([10]; POSTEMERGENCE, Rate 125 g/ha): 10
- Plant response rating, Alexandergrass ([10]; POSTEMERGENCE, Rate 250 g/ha): 75
- Plant response rating, Alexandergrass ([10]; PREEMERGENCE, Rate 32 g/ha): 20
- Plant response rating, Alexandergrass ([10]; PREEMERGENCE, Rate 64 g/ha): 75
- Plant response rating, Alexandergrass ([10]; PREEMERGENCE, Rate 125 g/ha): 75
- Plant response rating, Com. groundsel ([11]; Rate 32 g/ha): 35
- Plant response rating, Com. groundsel ([11]; Rate 64 g/ha): 98
- Plant response rating, Johnsongrass ([12]; POSTEMERGENCE, Rate 125 g/ha): 35
- Plant response rating, Johnsongrass ([12]; POSTEMERGENCE, Rate 250 g/ha): 20
- Plant response rating, Johnsongrass ([12]; PREEMERGENCE, Rate 64 g/ha): 50
- Plant response rating, Johnsongrass ([12]; PREEMERGENCE, Rate 125 g/ha): 75
- Plant response rating, P. morninglory ([13]; POSTEMERGENCE, Rate 125 g/ha): 80
- Plant response rating, P. morninglory ([13]; POSTEMERGENCE, Rate 250 g/ha): 80
- Plant response rating, P. morninglory ([13]; PREEMERGENCE, Rate 32 g/ha): 50
